{"source": "ChEMBL document CHEMBL4818987", "about": "“Recent advances of podophyllotoxin/epipodophyllotoxin hybrids in anticancer activity, mode of action, and structure-activity relationship: An update (2010-2020)” (Eur J Med Chem, 2020)", "key": {"BGC-823 [1]": {"test_system": "BGC-823", "assay": "Potency index, ratio of etoposide IC50 to test compound IC50 for antiproliferative activity against human BGC-823 cells", "format": "functional"}, "A549 [2]": {"test_system": "A549", "assay": "Antiproliferative activity against human A549 cells incubated for 48 hrs by MTT assay", "format": "functional, cell-based", "conditions": "A549, 48 h"}, "MCF7 [3]": {"test_system": "MCF7", "assay": "Antiproliferative activity against human MCF7 cells incubated for 48 hrs by MTT assay", "format": "functional, cell-based", "conditions": "MCF7, 48 h"}, "Huh-7 [4]": {"test_system": "Huh-7", "assay": "Potency index, ratio of etoposide IC50 to test compound IC50 for antiproliferative activity against human Huh-7 cells", "format": "functional"}, "Huh-7 [5]": {"test_system": "Huh-7", "assay": "Antiproliferative activity against human Huh7 cells incubated for 48 hrs by MTT assay", "format": "functional, cell-based", "conditions": "Huh-7, 48 h"}, "MCF7 [6]": {"test_system": "MCF7", "assay": "Potency index, ratio of etoposide IC50 to test compound IC50 for antiproliferative activity against human MCF7 cells", "format": "functional"}, "HeLa [7]": {"test_system": "HeLa", "assay": "Potency index, ratio of etoposide IC50 to test compound IC50 for antiproliferative activity against human HeLa cells", "format": "functional"}, "A549 [8]": {"test_system": "A549", "assay": "Potency index, ratio of etoposide IC50 to test compound IC50 for antiproliferative activity against human A549 cells", "format": "functional"}, "BGC-823 [9]": {"test_system": "BGC-823", "assay": "Antiproliferative activity against human BGC-823 cells incubated for 48 hrs by MTT assay", "format": "functional, cell-based", "conditions": "BGC-823, 48 h"}, "HeLa [10]": {"test_system": "HeLa", "assay": "Antiproliferative activity against human HeLa cells incubated for 48 hrs by MTT assay", "format": "functional, cell-based"}, "HFF": {"test_system": "HFF", "assay": "Cytotoxicity against human HFF cells", "format": "cell-based"}, "SK-BR-3": {"test_system": "SK-BR-3", "assay": "Antiproliferative activity against human SK-BR-3 cells", "format": "functional, cell-based"}, "[11]": {"assay": "Selectivity index, ratio of IC50 for human HFF cells to IC50 for human A549 cells", "format": "toxicity", "conditions": "pooled result: one value given for 20 cell lines, strains, targets or settings, read-out: Ratio IC50"}, "K562/Adr": {"test_system": "K562/Adr", "assay": "Antiproliferative activity against human K562/ADR cells", "format": "functional, cell-based"}, "U-251": {"test_system": "U-251", "assay": "Antiproliferative activity against human U251 cells", "format": "functional, cell-based"}, "K562 [12]": {"test_system": "K562", "assay": "Antiproliferative activity against human K562 cells", "format": "functional, cell-based"}, "LNCaP": {"test_system": "LNCaP", "assay": "Antiproliferative activity against human LNCaP cells", "format": "functional, cell-based"}, "SMMC-7721 [13]": {"test_system": "SMMC-7721", "assay": "Antiproliferative activity against human SMMC-7721 cells", "format": "functional, cell-based"}, "L02": {"test_system": "L02", "assay": "Cytotoxicity against human HL7702 cells", "format": "cell-based"}, "HCT-116": {"test_system": "HCT-116", "assay": "Antiproliferative activity against human HCT116 cells", "format": "functional, cell-based"}, "K562/A02 [14]": {"test_system": "K562/A02", "assay": "Potency index, ratio of etoposide GI50 to test compound GI50 for human K562/A02 cells", "format": "functional"}, "K562/A02 [15]": {"test_system": "K562/A02", "assay": "Cytotoxicity against human K562/A02 cells by SRB assay", "format": "functional, cell-based"}, "K562/A02 [16]": {"test_system": "K562/A02", "assay": "Potency index, ratio of doxorubicin IC50 to test compound IC50 for human K562/A02 cells", "format": "functional"}, "K562 [17]": {"test_system": "K562", "assay": "Cytotoxicity against human K562 cells by SRB assay", "format": "functional, cell-based"}, "[18]": {"assay": "Resistance index, ratio of IC50 for human K562/AO2 cells to IC50 for human K562 cells", "format": "functional"}, "K562/A02 [19]": {"test_system": "K562/A02", "assay": "Antiproliferative activity against human K562/A02 cells by MTT assay", "format": "functional, cell-based"}, "HeLa [20]": {"test_system": "HeLa", "assay": "Potency index, ratio of etoposide IC50 to test compound IC50 for human HeLa cells", "format": "functional"}, "K562 [21]": {"test_system": "K562", "assay": "Antiproliferative activity against human K562 cells by MTT assay", "format": "functional, cell-based"}, "HeLa [22]": {"test_system": "HeLa", "assay": "Antiproliferative activity against human HeLa cells by MTT assay", "format": "functional, cell-based"}, "K562 [23]": {"test_system": "K562", "assay": "Potency index, ratio of etoposide IC50 to test compound IC50 for human K562 cells", "format": "functional"}, "HL-60": {"test_system": "HL-60", "assay": "Antiproliferative activity against human HL-60 cells incubated for 48 hrs by MTT assay", "format": "functional, cell-based", "conditions": "HL-60, 48 h"}, "CCRF S-180": {"test_system": "CCRF S-180", "assay": "Antitumor activity against mouse S180 cells implanted in ICR mouse assessed as reduction in tumor weight at 20 mg/kg, ip administered everyday for 7 days relative to control", "format": "functional", "parameters": "scale not given: the % may be the effect or the level left", "conditions": "time 7 day"}, "SMMC-7721 [24]": {"test_system": "SMMC-7721", "assay": "Antiproliferative activity against human SMMC-7721 cells incubated for 48 hrs by MTT assay", "format": "functional, cell-based", "conditions": "SMMC-7721, 48 h"}, "SW480": {"test_system": "SW480", "assay": "Antiproliferative activity against human SW480 cells incubated for 48 hrs by MTT assay", "format": "functional, cell-based", "conditions": "SW480, 48 h"}}}
{"compound": "COc1cc([C@@H]2c3cc4c(cc3[C@@H](Nc3ncccc3F)[C@H]3COC(=O)[C@H]23)OCO4)cc(OC)c1O", "values": [{"measurement": "Ratio IC50", "setting": "BGC-823 [1]", "result": 3.3}, {"measurement": "IC50", "setting": "A549 [2]", "result": 60, "unit": "nM"}, {"measurement": "IC50", "setting": "MCF7 [3]", "result": 60, "unit": "nM"}, {"measurement": "Ratio IC50", "setting": "Huh-7 [4]", "result": 3.3}, {"measurement": "IC50", "setting": "Huh-7 [5]", "result": 60, "unit": "nM"}, {"measurement": "Ratio IC50", "setting": "MCF7 [6]", "result": 3.3}, {"measurement": "Ratio IC50", "setting": "HeLa [7]", "result": 3.3}, {"measurement": "Ratio IC50", "setting": "A549 [8]", "result": 3.3}, {"measurement": "IC50", "setting": "BGC-823 [9]", "result": 60, "unit": "nM"}]}
{"compound": "COc1cc([C@@H]2c3cc4c(cc3[C@@H](Nc3ncccc3F)[C@H]3COC(=O)[C@H]23)OCO4)cc(OC)c1OC", "values": [{"measurement": "Ratio IC50", "setting": "BGC-823 [1]", "result": 3.3}, {"measurement": "IC50", "setting": "A549 [2]", "result": 60, "unit": "nM"}, {"measurement": "IC50", "setting": "MCF7 [3]", "result": 60, "unit": "nM"}, {"measurement": "Ratio IC50", "setting": "Huh-7 [4]", "result": 3.3}, {"measurement": "IC50", "setting": "Huh-7 [5]", "result": 60, "unit": "nM"}, {"measurement": "Ratio IC50", "setting": "MCF7 [6]", "result": 3.3}, {"measurement": "Ratio IC50", "setting": "HeLa [7]", "result": 3.3}, {"measurement": "Ratio IC50", "setting": "A549 [8]", "result": 3.3}, {"measurement": "IC50", "setting": "HeLa [10]", "result": 60, "unit": "nM"}, {"measurement": "IC50", "setting": "BGC-823 [9]", "result": 60, "unit": "nM"}]}
{"compound": "COC(=O)c1ccc(-c2cn(CC(=O)O[C@H]3c4cc5c(cc4[C@@H](c4cc(OC)c(OC)c(OC)c4)[C@H]4C(=O)OC[C@@H]43)OCO5)nn2)cc1", "values": [{"measurement": "IC50", "setting": "HFF", "result": 195, "unit": "nM"}, {"measurement": "IC50", "setting": "SK-BR-3", "result": 19.6, "unit": "nM"}, {"measurement": "selectivity ratio", "setting": "[11]", "result": 3.5}, {"measurement": "IC50", "setting": "K562/Adr", "result": 19.6, "unit": "nM"}, {"measurement": "IC50", "setting": "U-251", "result": 19.6, "unit": "nM"}, {"measurement": "IC50", "setting": "K562 [12]", "result": 19.6, "unit": "nM"}, {"measurement": "IC50", "setting": "LNCaP", "result": 19.6, "unit": "nM"}, {"measurement": "IC50", "setting": "SMMC-7721 [13]", "result": 19.6, "unit": "nM"}, {"measurement": "IC50", "setting": "L02", "result": 565, "unit": "nM"}, {"measurement": "IC50", "setting": "HCT-116", "result": 19.6, "unit": "nM"}]}
{"compound": "COc1ccc2[nH]cc(C(=O)C(=O)N[C@@H]3c4cc5c(cc4[C@@H](c4cc(OC)c(OC)c(OC)c4)[C@H]4C(=O)OC[C@@H]43)OCO5)c2c1", "values": [{"measurement": "Ratio IC50", "setting": "K562/A02 [14]", "result": 4.2}, {"measurement": "GI50", "setting": "K562/A02 [15]", "result": 3340, "unit": "nM"}, {"measurement": "Ratio IC50", "setting": "K562/A02 [16]", "result": 4.2}, {"measurement": "GI50", "setting": "K562 [17]", "result": 1020, "unit": "nM"}]}
{"compound": "COc1cc([C@@H]2c3cc4c(cc3[C@@H](NCc3cc5ccccc5[nH]3)[C@H]3COC(=O)[C@H]23)OCO4)cc(OC)c1OC", "values": [{"measurement": "Ratio IC50", "setting": "K562/A02 [14]", "result": 1.7}, {"measurement": "Ratio IC50", "setting": "[18]", "result": 1.97}, {"measurement": "IC50", "setting": "K562/A02 [19]", "result": 2230, "unit": "nM"}, {"measurement": "Ratio IC50", "setting": "HeLa [20]", "result": 1.7}, {"measurement": "IC50", "setting": "K562 [21]", "result": 100, "unit": "nM"}, {"measurement": "IC50", "setting": "HeLa [22]", "result": 100, "unit": "nM"}, {"measurement": "Ratio IC50", "setting": "K562 [23]", "result": 1.7}]}
{"compound": "COc1cc([C@@H]2c3cc4c(cc3[C@@H](OC(=O)CCCC[C@@H]3SC[C@@H]5NC(=O)N[C@@H]53)[C@H]3COC(=O)[C@H]23)OCO4)cc(OC)c1O", "values": [{"measurement": "IC50", "setting": "HL-60", "result": 130, "unit": "nM"}, {"measurement": "IC50", "setting": "A549 [2]", "result": 130, "unit": "nM"}, {"measurement": "Activity", "setting": "CCRF S-180", "result": 37.7, "unit": "%"}, {"measurement": "IC50", "setting": "MCF7 [3]", "result": 130, "unit": "nM"}, {"measurement": "IC50", "setting": "SMMC-7721 [24]", "result": 130, "unit": "nM"}, {"measurement": "IC50", "setting": "SW480", "result": 130, "unit": "nM"}]}
